Data as given in patent publication US20250304625A1, “ARTICLES AND METHODS FOR INHIBITING METHIONINE AMINOPEPTIDASE ACTIVITY” (Vanderbilt University, priority 2022, published 2025).

Tests used:
TKPTS cells [1] = experiment: Seahorse XF96 cell mitochondrial stress test (oxygen consumption rate); format: cell-based, murine; conditions: Zng1^−/− cells pre-treated with 3 μM TPA
Experimental: 8,000 WT or Zng1 mutant vehicle treated TKPTS cells or TKPTS cells serially passaged in 3 μM TPA (Sigma, 723134) were plated in individual wells of seahorse plates in complete DMEM F12 media described above. Cells were resuspended in mitochondria assay media (Seahorse Agilent pH 7.4 media+1 mM pyruvate+10 mM glucose+2 mM glutamine). No TKPTS cells were added to the four wells in the corners of the plate as a background control. For the mitochondrial stress test, the cartridge was sequentially loaded with oligomycin (15 μM), FCCP (15 μM), and rotenone/antimycin A (5 μM) (diluted in mitochondria assay media) for injection into the wells. To normalize across wells by cell density, the Seahorse plate was imaged using a BioTek Cytation 5. Oxygen consumption and extracellular acidification rates were collected using a Seahorse XFe96 Analyzer and analyzed using Wave Desktop software (Agilent Technologies).

cell lines = conditions: compared to other chelators (e.g. TPEN); cited from earlier work
TKPTS cells [2] = experiment: TKPTS cell proliferation by CellTrace flow cytometry; format: cell-based, murine; conditions: Zng1 mutant cells compared to WT, 3 μM TPA, three days
Experimental: TKPTS cells were seeding at 2,000 to 4,000 cells per well of 24- or 12-well tissue culture treated multi-well plates and incubated overnight at 37° C. Cells were staining with CellTRACE violet (Invitrogen, C34557) as described by manufacturer's protocol. Briefly, CellTRACE solution was prepared in PBS at a 1:1,000 dilution, added to the cells, and cells were incubated for 20 min at 37° C. Cells were then washed two times in cell culture media supplemented with 7% FBS, and replaced with fresh cell culture media supplemented with desired chemical treatments (3 μM TPA, Sigma, 723134; 5 μg/ml TNP470, Sigma, T1455; or 50 nM Bengamide B, Santa cruz, sc-397521A). Stock solutions of drugs were prepared in ACS-grade DMSO (Fisher Scientific, D136). […] After three days of growth, cells were stained with MitoTracker far-red (Invitrogen, M22426; 1:2500 dilution for 20 min at 37° C.) and MitoSOX red (Molecular probes, M36008: 1,1000 for 20 min at 37° C.) following manufacture's protocols. Cells were washed with PBS, trypsinized, and transferred to Eppendorf tubes prior to fixation in 4% PFA (Alfa aesar, J61899). Cells were fixed for 20 min at room temperature, centrifuged at 200×g for 10 min and washed with PBS prior to resuspension in 300 μl FACS buffer (2% FBS, 0.02% sodium azide in PBS). All flow cytometry data were collected using a BD LSRII flow cytometer with FACSDIVA software and analyzed using FlowJo (FlowJo LLC). Samples were gated forward scatter height (FSC-H) by forward scatter area (FSC-A) and side scatter height (SSC-H) by side scatter area (SSC-A) to remove doublet populations. The singlet population was gated SSC-A by FSC-A to isolate live cells. The resulting cell population was then assessed for assay-specific fluorescent markers and the median fluorescence intensity (MFI) quantified.

zng1 transcript = experiment: zng1 expression in whole zebrafish larvae (qPCR); format: in vivo; conditions: WT larvae, immersion, 20 μM TPEN vs ethanol vehicle
Experimental: For all experiments larval zebrafish were bred naturally and collected into embryo media and were maintained at 28° C. on a 14/10 h light/dark cycle for duration of experiments. For survival experiments, zebrafish larvae were split into even densities into 6 or 12 multi-well plates in 5 mL or 1 mL embryo media respectively at 3 dpf. Stock solutions of METAP2 inhibitor TNP-470 (Sigma, T1455) and METAP1/2 inhibitor Bengamide B (Santa cruz, sc-397521A) were prepared in ACS-grade DMSO (Fisher Scientific, D136) and TPEN (Sigma, P4413) was prepared in ethanol and stored at −20° C. TNP-470, Bengamide B, and/or TPEN were applied into embryo media as well as a DMSO and/or ethanol vehicle controls at 3 dpf. Zebrafish survival was monitored daily until 6 dpf and all moribund or dead animals were removed. […]
For RNA isolation from dissected mouse tissue, mice were humanely euthanized, tissues harvested and immediately flash frozen in liquid nitrogen and stored at −80C. […] Quantitative PCR was performed in duplicate-quadruplicate 25 μL reactions using 2× iQ SYBR Green SuperMix (BioRad, 1708882) run on an BioRad CFX96 Real-Time System instrument using gene-specific primers (zebrafish: P34-P39, mice: P40-P43, cell lines: 44-69, Table S5). Data were analyzed with the ΔΔCt method (Livak and Schmittgen, 2001) or presented as relative expression values.

Structure (SMILES)	basal and maximal respiration, ATP production, and proton leak (OCR) (TKPTS cells [1])	cytotoxicity towards cell lines (cell lines)	proliferation (CellTrace dye retention) (TKPTS cells [2])	zng1 transcript (zng1 transcript)
c1ccc(CN(Cc2ccccn2)Cc2ccccn2)nc1 [TPA, tris(2-pyridylmethyl)amine]	significantly impaired	lower cytotoxicity	significantly slowed proliferation	
c1ccc(CN(CCN(Cc2ccccn2)Cc2ccccn2)Cc2ccccn2)nc1 [TPEN, N,N,N′,N′-Tetrakis(2-pyridylmethyl)ethylenediamine]				significant induction
